Patent US20230372525A1, “TRANSGLUTAMINASE CONJUGATION METHOD WITH AMINO ACID-BASED LINKERS” (ARARIS BIOTECH AG, priority 2020, published 2023)
[ ]: non-standard residue; d: D form. The star is where a group is joined. N3 = [N-]=[N+]=N*; βAla = NCCC(=O)O

Key:
various tumor cell lines = conditions: cited from earlier work
[1] = test system: native, glycosylated antibody trastuzumab (anti Her2 IgG); assay: MTG-mediated conjugation of peptide linkers to native glycosylated trastuzumab, conjugation efficiency by LC-MS under reducing conditions; type: biochemical; conditions: for Conjugation efficiency (%) to antibody: trastuzumab 5 mg/mL, 20 molar equivalents linker, 50 mM Tris pH 7.6; for Conjugation efficiency (%) to antibody / Conjugation efficiency (%) Trastuzumab with conditions 3: MTG 3 U/mg, 24 hours at 37° C.; for Conjugation efficiency (%) antibody with conditions 2: conditions 2: trastuzumab 1 mg/mL, MTG 6 U/mg, 80 molar equivalents linker, 20 hours at 37° C.; for Conjugation efficiency (%) Trastuzumab with conditions 3: conditions 3: 5 mg/mL antibody, 5 molar equivalents linker
Method: (§1) Linkers are used as obtained and dissolved at a suitable stock concentration (e.g. 25 mM) following the manufacturers instruction, aliquots are prepared and stored at −20° C. Two antibodies of IgG-subclass (antibody 1: anti Her2 IgG1, antibody 2: anti CD38 IgG1) are modified as follows: 5 mg/mL of non-deglycosylated antibody (˜33.33 μM) is mixed with 20 molar equivalents of amino acid-based linker (i.e. ˜667 μM), 3 U/mg of antibody and a suitable buffer. The reaction mixture is incubated for 20 h at 37° C. and then subjected for LC-MS analysis under reducing conditions. Other reaction conditions have been used as indicated in the corresponding example.
(§2) For conjugation of the peptide linkers (see FIG. 2 for structures), 5 mg/mL of native, glycosylated monoclonal antibody in 50 mM Tris pH 7.6, microbial transglutaminase (MTG, Zedira) at a concentration of 3 U/mg in 50 mM Tris pH 7.6 or water, and 20 molar equivalents of the indicated peptide linker were used and incubated for 24 hours at 37° C. in a rotating thermomixer. Conjugation efficiency was assessed by LC-MS under DTT reduced conditions. Reduction of samples was achieved by incubation of antibody-linker-conjugates (ALCs) for 15 min at 37° C. in 50 mM DTT (final) and 50 mM Tris buffer. Probes were analyzed on a Xevo G2-XS QTOF (Waters) coupled to an Acquity UPLC H-Class System (Waters) and an ACQUITY UPLC BEH C18 Column. Conjugation efficiency (CE) was calculated from deconvoluted spectra and presented in %. Intensities resulting from both glycoforms (G1F and G0F) were taken into account for the calculation, according to the formula: […]
For conjugation of the peptide linkers (see FIG. 2 for structures), 1 mg/mL of native, glycosylated monoclonal antibody in 50 mM Tris pH 7.6, microbial transglutaminase (MTG, Zedira) at a concentration of 6 U/mg in 50 mM Tris pH 7.6 or water, and 80 molar equivalents of the indicated peptide linker were used and incubated for 20 hours at 37° C. in a rotating thermomixer. These are defined as “conditions 2”. Conjugation efficiency was assessed by LC-MS under DTT reduced conditions. Reduction of samples was achieved by incubation of antibody-linker-conjugates (ALCs) for 15 min at 37° C. in 50 mM DTT (final) and 50 mM Tris buffer. Probes were analyzed on a Xevo G2-XS QTOF (Waters) coupled to an Acquity UPLC H-Class System (Waters) and a ACQUITY UPLC BEH C18 Column. Conjugation efficiency (CE) was calculated from deconvoluted spectra and presented in %. Intensities resulting from both glycoforms (G1F and G0F) were taken into account for the calculation, according to the formula: […]
(§3) For conjugation of the peptide linkers (see FIG. 2 for structures), 5 mg/mL of native, glycosylated monoclonal antibody in 50 mM Tris pH 7.6, microbial transglutaminase (MTG, Zedira) at a concentration of 3 U/mg in 50 mM Tris pH 7.6 or water, and 5 molar equivalents of the indicated peptide linker were used and incubated for 24 hours at 37° C. in a rotating thermomixer. These are defined as “conditions 3”. Conjugation efficiency was assessed by LC-MS under DTT reduced conditions. Reduction of samples was achieved by incubation of antibody-linker-conjugates (ALCs) for 15 min at 37° C. in 50 mM DTT (final) and 50 mM Tris buffer. Probes were analyzed on a Xevo G2-XS QTOF (Waters) coupled to an Acquity UPLC H-Class System (Waters) and a ACQUITY UPLC BEH C18 Column. Conjugation efficiency (CE) was calculated from deconvoluted spectra and presented in %. Intensities resulting from both glycoforms (G1F and G0F) were taken into account for the calculation, according to the formula: […]

[2] = test system: native, glycosylated antibody daratumumab (anti CD38 IgG); assay: MTG-mediated conjugation of peptide linkers to native glycosylated daratumumab, conjugation efficiency by LC-MS under reducing conditions; type: biochemical; conditions: MTG 3 U/mg, 24 hours at 37° C.; for Conjugation efficiency (%) Daratumumab with conditions 3: conditions 3: 5 mg/mL antibody, 5 molar equivalents linker; for Conjugation efficiency (%) to antibody: daratumumab 5 mg/mL, 20 molar equivalents linker, 50 mM Tris pH 7.6
Method: as §1, §2, §3

[3] = target: DNA-dependent RNA polymerase II (Homo sapiens, UniProt P24928); conditions: read-out: KD of the complex between amanitin and RNA-polymerase II; cited from earlier work

CC[C@H](C)[C@H](NC(=O)[C@H]1CCCCN1C)C(=O)N(COC(=O)CC(C)C)[C@H](C[C@@H](OC(C)=O)c1nc(C(=O)N[C@@H](Cc2ccc(O)cc2)C[C@H](C)C(=O)O)cs1)C(C)C [Tubulysin A]
IC50, cytostatic effects on various tumor cell lines (various tumor cell lines): picomolar range

AARK(N3)-NH2 [reference compound]
Conjugation efficiency (%) to antibody [1]: 0%

LGRC-NH2 [reference compound]
Conjugation efficiency (%) to antibody [1]: 0%

NH2-C1-ARK(N3)-NH2 (GARK; HELM PEPTIDE1{G.A.R.[[N-]=[N+]=NCCCC[C@H](N[*:1])C(=O)[*:2]].[am]}$$$$V2.0; SMILES C[C@H](NC(=O)CN)C(=O)N[C@@H](CCCNC(=N)N)C(=O)N[C@@H](CCCCN=[N+]=[N-])C(N)=O) [NT28]
Conjugation efficiency (%) to antibody [1]: 89%

NH2-C1-GRK(N3)-NH2 (GGRK; HELM PEPTIDE1{G.G.R.[[N-]=[N+]=NCCCC[C@H](N[*:1])C(=O)[*:2]].[am]}$$$$V2.0; SMILES [N-]=[N+]=NCCCC[C@H](NC(=O)[C@H](CCCNC(=N)N)NC(=O)CNC(=O)CN)C(N)=O) [NT24]
Conjugation efficiency (%) antibody with conditions 2 [1]: 78%
Conjugation efficiency (%) Trastuzumab with conditions 3 [1]: 97%
Conjugation efficiency (%) to antibody [1]: 99%
Conjugation efficiency (%) Daratumumab with conditions 3 [2]: 89%
Conjugation efficiency (%) to antibody [2]: 95%

NH2-C2-GRK(N3)-NH2 (H-[βAla]GRK(N3)-NH2) [NT37]
Conjugation efficiency (%) antibody with conditions 2 [1]: 38%
Conjugation efficiency (%) to antibody [1]: 70%

NH2-C3-GRK(N3)-NH2 [NT38]
Conjugation efficiency (%) antibody with conditions 2 [1]: 36%
Conjugation efficiency (%) to antibody [1]: 53%

NH2-C4-GRK(N3)-NH2 [NT41]
Conjugation efficiency (%) antibody with conditions 2 [1]: 70%
Conjugation efficiency (%) Trastuzumab with conditions 3 [1]: 88%
Conjugation efficiency (%) to antibody [1]: 99%
Conjugation efficiency (%) Daratumumab with conditions 3 [2]: 88%
Conjugation efficiency (%) to antibody [2]: 98%

NH2-C4-ValArg-NH2 [NT40]
Conjugation efficiency (%) antibody with conditions 2 [1]: 83%
Conjugation efficiency (%) Trastuzumab with conditions 3 [1]: 58%
Conjugation efficiency (%) to antibody [1]: 96%
Conjugation efficiency (%) Daratumumab with conditions 3 [2]: 51%
Conjugation efficiency (%) to antibody [2]: 89%

NH2-C4-ValCit-NH2 [NT39]
Conjugation efficiency (%) antibody with conditions 2 [1]: 63%
Conjugation efficiency (%) to antibody [1]: 67%

NH2-C5-GRK(N3)-NH2 [NT36]
Conjugation efficiency (%) antibody with conditions 2 [1]: 56%
Conjugation efficiency (%) Trastuzumab with conditions 3 [1]: 75%
Conjugation efficiency (%) to antibody [1]: 84%
Conjugation efficiency (%) Daratumumab with conditions 3 [2]: 72%
Conjugation efficiency (%) to antibody [2]: 93%

NH2-C5-ValArg-NH2 [NT44]
Conjugation efficiency (%) antibody with conditions 2 [1]: 88%
Conjugation efficiency (%) Trastuzumab with conditions 3 [1]: 77%
Conjugation efficiency (%) to antibody [1]: 100%
Conjugation efficiency (%) Daratumumab with conditions 3 [2]: 73%
Conjugation efficiency (%) to antibody [2]: 95%

NH2-C5-ValCit-NH2 [NT43]
Conjugation efficiency (%) antibody with conditions 2 [1]: 79%
Conjugation efficiency (%) to antibody [1]: 83%

NH2-C6-AspArg-NH2 [NT66]
Conjugation efficiency (%) to antibody [1]: 64%
Conjugation efficiency (%) to antibody [2]: 66%

NH2-C6-GRK(N3)-NH2 [NT42]
Conjugation efficiency (%) antibody with conditions 2 [1]: 38%
Conjugation efficiency (%) to antibody [1]: 67%

NH2-C6-IleArg-NH2 [NT65]
Conjugation efficiency (%) Trastuzumab with conditions 3 [1]: 78%
Conjugation efficiency (%) to antibody [1]: 96%
Conjugation efficiency (%) Daratumumab with conditions 3 [2]: 79%
Conjugation efficiency (%) to antibody [2]: 95%

NH2-C6-ThrArg-NH2 [NT64]
Conjugation efficiency (%) Trastuzumab with conditions 3 [1]: 92%
Conjugation efficiency (%) to antibody [1]: 95%
Conjugation efficiency (%) Daratumumab with conditions 3 [2]: 92%
Conjugation efficiency (%) to antibody [2]: 93%

NH2-C6-TrpArg-NH2 [NT67]
Conjugation efficiency (%) to antibody [1]: 82%
Conjugation efficiency (%) to antibody [2]: 83%

RGRK(N3)-NH2 [reference compound]
Conjugation efficiency (%) to antibody [1]: 0%

SAGRK(N3)-NH2 [reference compound]
Conjugation efficiency (%) to antibody [1]: 0%

VGRC-NH2 [reference compound]
Conjugation efficiency (%) to antibody [1]: 0%

amanitin
Kd [3]: 3 nM
